Results taken from patent US9556203B2, “Conformationally restricted P13K and mTOR inhibitors” (UNIVERSITAET BASEL, priority 2013, dated 2017).
pIC50: −log10 of the molar value.

Experiments:
pPKB S473 = experiment: In-cell Western blot, pPKB S473; assay type: cell-based; details: Homo sapiens; A2058 cells, treated 1 h, normalized to α-Tubulin
Protocol: (§1) A2058 cells were plated at 20,000 cells/well in a 96-well plate (Perkin Elmer, Cat. No. 6005558) and 24 h later treated with different compounds for 1 h. […] Cells were fixed with 4% paraformaldehyde for 30 min at RT, washed 2 times with 1% BSA in PBS, permeabilized with 0.1% Triton X-100 in PBS/1% BSA for 30 min at rt and blocked with 5% goat serum in PBS/1% BSA/0.1% Triton X-100 for 30 min at rt. Cells were stained with primary antibody either with rabbit anti-pPKB S473 (1:500; Cell Signalling Technology, Cat. No. 4058) combined with mouse anti-α-Tubulin (1:2000; used for normalization; Sigma, Cat. No. T9026) or with rabbit anti-pS6 S235/S236 (1:500; Cell Signalling Technology, Cat. No. 4856) combined with mouse anti-α-Tubulin (1:2000; used for normalization) over night at 4° C. After 3 times 5 min wash with PBS/1% BSA/0.1% Triton cells were treated with the secondary antibodies goat-anti-mouse IRDye680 (LICOR, Cat. No. 926-68070) and goat-anti-rabbit IRDye800 (LICOR, 926-32211) (each diluted 1:500 in PBS/1% BSA/0.1% Triton) for 1 h while shaking in the dark. Cells were washed 3 times 5 min with PBS/1% BSA/0.1% Triton and plate scanned with the Odyssey Infrared Scanning system using both 700 and 800 nm channels. […] To correct for background staining in the data analysis wells were treated only with secondary antibodies.
(§2) For data analysis the mean background signal from channel 700 nm and 800 nm were subtracted from each signal in channel 700 nm and 800 nm, respectively. The signals in each channel were normalized to the 0% inhibition and then signal ratio 800 nm over 700 nm was performed to obtain the values for either pPBK S473 or pS6 S235/S236 normalized to α-Tubulin.
(§3) IC50 values of each compound were determined by plotting the normalized pPBK S473 and pS6 S235/S236 signals, respectively, versus the compound concentrations (in logarithmic scale) and then by fitting a sigmoidal dose-response curve with variable slope to the data using GraphPad™ Prism.

pS6 S235/236 = experiment: In-cell Western blot, pS6 S235/236; assay type: cell-based; details: Homo sapiens; A2058 cells, treated 1 h, normalized to α-Tubulin
Protocol: as §1, §2, §3

PI3K alpha (p110α) = target: T1, PI3K alpha (p110α) (Homo sapiens, UniProt P42336); experiment: In vitro PI3K alpha binding assay (time-resolved FRET, Tracer 314); details: N-terminally His-tagged PI3K alpha, 20 nM Tracer 314, 1 h at rt
T1 construct: purchased Life Technologies PV4789
T1 sequence (P42336 whole entry): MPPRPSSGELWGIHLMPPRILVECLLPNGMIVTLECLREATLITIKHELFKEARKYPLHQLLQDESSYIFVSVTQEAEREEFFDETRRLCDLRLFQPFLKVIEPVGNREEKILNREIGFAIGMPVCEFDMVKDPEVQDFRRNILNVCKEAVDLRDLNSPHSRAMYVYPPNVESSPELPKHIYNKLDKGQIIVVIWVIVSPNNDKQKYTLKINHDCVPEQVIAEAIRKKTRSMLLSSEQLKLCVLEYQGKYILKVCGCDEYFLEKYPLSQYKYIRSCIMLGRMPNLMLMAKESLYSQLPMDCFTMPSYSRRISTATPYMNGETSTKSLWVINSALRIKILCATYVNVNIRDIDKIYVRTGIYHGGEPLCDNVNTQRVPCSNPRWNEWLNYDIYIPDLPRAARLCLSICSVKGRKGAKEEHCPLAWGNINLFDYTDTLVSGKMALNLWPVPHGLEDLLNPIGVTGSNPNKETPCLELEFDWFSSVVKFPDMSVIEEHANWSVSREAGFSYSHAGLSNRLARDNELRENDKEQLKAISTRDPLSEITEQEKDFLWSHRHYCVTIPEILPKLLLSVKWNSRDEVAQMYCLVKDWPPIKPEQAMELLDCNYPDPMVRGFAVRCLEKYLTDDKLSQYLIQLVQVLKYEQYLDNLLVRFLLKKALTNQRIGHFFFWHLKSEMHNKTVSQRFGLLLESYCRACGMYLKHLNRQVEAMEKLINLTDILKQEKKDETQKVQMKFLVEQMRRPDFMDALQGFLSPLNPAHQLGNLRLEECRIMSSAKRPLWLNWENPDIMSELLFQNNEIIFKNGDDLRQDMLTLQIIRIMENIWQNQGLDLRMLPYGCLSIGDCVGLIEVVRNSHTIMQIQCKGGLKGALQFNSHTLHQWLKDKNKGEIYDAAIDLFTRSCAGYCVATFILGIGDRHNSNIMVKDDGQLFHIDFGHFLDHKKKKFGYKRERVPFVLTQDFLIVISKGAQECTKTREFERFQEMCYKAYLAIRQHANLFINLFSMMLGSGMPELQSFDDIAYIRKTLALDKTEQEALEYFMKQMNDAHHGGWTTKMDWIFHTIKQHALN
T1 sequence (P27986 whole entry partner): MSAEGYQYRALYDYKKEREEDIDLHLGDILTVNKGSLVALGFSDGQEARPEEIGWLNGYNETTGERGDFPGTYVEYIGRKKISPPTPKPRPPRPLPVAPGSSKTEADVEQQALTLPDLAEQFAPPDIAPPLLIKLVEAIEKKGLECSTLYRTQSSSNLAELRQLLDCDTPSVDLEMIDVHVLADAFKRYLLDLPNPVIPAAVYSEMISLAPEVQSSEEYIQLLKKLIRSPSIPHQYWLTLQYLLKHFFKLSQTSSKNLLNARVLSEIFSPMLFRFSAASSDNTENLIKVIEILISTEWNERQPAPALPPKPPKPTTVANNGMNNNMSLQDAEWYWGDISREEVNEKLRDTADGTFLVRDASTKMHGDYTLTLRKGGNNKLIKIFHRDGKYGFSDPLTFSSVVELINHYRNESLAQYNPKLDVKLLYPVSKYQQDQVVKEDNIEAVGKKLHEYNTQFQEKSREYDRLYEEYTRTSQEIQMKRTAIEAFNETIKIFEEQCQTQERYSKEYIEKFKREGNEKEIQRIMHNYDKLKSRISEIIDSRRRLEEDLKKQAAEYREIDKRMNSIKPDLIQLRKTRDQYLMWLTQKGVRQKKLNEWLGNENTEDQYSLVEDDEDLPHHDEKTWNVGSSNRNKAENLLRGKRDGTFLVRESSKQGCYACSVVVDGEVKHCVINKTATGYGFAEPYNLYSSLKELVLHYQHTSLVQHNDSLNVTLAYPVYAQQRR
Protocol: N-terminally His-tagged PI3K alpha (Cat. No. PV4789; 0.49 mg/ml), Alexa Fluor® 647 labeled kinase Tracer 314 (Cat. No. PV6087), Biotin anti-His Tag antibody (Cat. No PV6089) and LanthaScreen® Eu-Streptavidin (Cat. No. PV5899) were purchased from Life Technologies. The 1× Kinase Buffer A consists of 50 mM HEPES pH 7.5, 10 mM MgCl2, 1 mM EGTA, and 0.01% (v/v) Brij-35 (Sigma Cat. No. B4184-100ML).
A 4-fold serial dilution of each compound to be tested was prepared in DMSO (master dilution) in a 96-well polystyrene plate (Falcon Cat. No. 353072, flat bottom) with the highest concentration at 1000 μM and the lowest at 0.004 μM. The master dilution series were diluted further 33.3-fold into Kinase Buffer A by transferring 5 μl of each concentration of diluted compound to 162 μl Kinase Buffer A in a new 96-well plate resulting to a 3-fold serially compound dilution. Based on a Tracer 314 titration experiment a working concentration of 20 nM was chosen. Therefore a 60 nM Tracer 314 solution in Kinase Buffer A was prepared resulting in a 3-fold concentrated solution. A 3-fold concentrated kinase/antibody solution at 15 nM kinase, 6 nM antibody and 6 nM Eu-Streptavidin was prepared in Kinase Buffer A. Five μl of each 3× serially diluted compound were dispensed in a 384-well plate in duplicate. Then to each well 5 μl of 3× kinase/antibody mixture was added followed by the addition of 5 μl 3× Tracer 314 solution. After 1 h incubation at rt, time-resolved FRET was measured with a Synergy 4 multi-mode microplate reader (Biotek Instruments) using the following settings: 100 μs delay before data collection, 200 μs time for data collection, 10 measurements per data point. Emission filter: 665 nm/8 nm with sensitivity set to 163 and 620 nm/10 nm with sensitivity set to 135; Excitation filter: 340 nm/30 nm; Dichroic mirror 400 nm.
For data analysis, emission ratio was calculated by dividing the signal emitted at 665 nm from the acceptor (Alexa Fluor® 647 labeled Tracer 314) by the signal emitted at 620 nm from the donor (Eu-labeled antibody). IC50 values of each compound were determined by plotting the emission ratio versus the compound concentrations (in logarithmic scale) and then by fitting a sigmoidal dose-response curve with variable slope to the data using GraphPad™ Prism.

Row | pIC50 (PI3K alpha (p110α)) | SMILES | pIC50 (pPKB S473) | pIC50 (pS6 S235/236)
1 | 6.41 | Nc1cc(C(F)(F)F)c(-c2nc(N3CCOCC3)c3c(n2)N2CCOC[C@H]2C3)cn1 [Compound 6, (R)-5-(4-morpholino-5a,6,8,9-tetrahydro-5H-pyrimido[5′,4′:4,5]pyrrolo[2,1-c][1,4]oxazin-2-yl)-4-(trifluoromethyl)pyridin-2-amine] | 6.37 | 6.16
2 | 7.01 | Nc1cc(C(F)(F)F)c(-c2nc(N3CCOCC3)c3c(n2)N2CCOC[C@@H]2C3)cn1 [Compound 22, (S)-5-(4-morpholino-5a,6,8,9-tetrahydro-5H-pyrimido[5′,4′:4,5]pyrrolo[2,1-c][1,4]oxazin-2-yl)-4-(trifluoromethyl)pyridin-2-amine] | 6.37 | 5.96
3 | 6.42 | Nc1cc(C(F)(F)F)c(-c2nc(N3CCOCC3)nc3c2C[C@H]2COCCN32)cn1 [Compound 54, (S)-5-(2-morpholino-5a,6,8,9-tetrahydro-5H-pyrimido[5′,4′:4,5]pyrrolo[2,1-c][1,4]oxazin-4-yl)-4-(trifluoromethyl)pyridin-2-amine] | 6.08 | 5.68

The remaining lines, values behind:

Row | SMILES | pIC50 (PI3K alpha (p110α)) | pIC50 (pPKB S473) | pIC50 (pS6 S235/236)
4 | Nc1ncc(-c2nc(N3CCOCC3)c3c(n2)N2CCOC[C@H]2C3)cn1 [Compound 9, (R)-5-(4-morpholino-5a,6,8,9-tetrahydro-5H-pyrimido[5′,4′:4,5]pyrrolo[2,1-c][1,4]oxazin-2-yl)pyrimidin-2-amine] | 6.39 | 6.84 | 7.19
5 | Nc1ncc(-c2nc(N3CCOCC3)c3c(n2)N2CCOC[C@@H]2C3)cn1 [Compound 25, (S)-5-(4-morpholino-5a,6,8,9-tetrahydro-5H-pyrimido[5′,4′:4,5]pyrrolo[2,1-c][1,4]oxazin-2-yl)pyrimidin-2-amine] | 7.12 | 6.81 | 7.01
6 | Nc1cc(C(F)(F)F)c(-c2nc(N3CCOCC3)nc3c2C[C@@H]2COCCN32)cn1 [Compound 38, (R)-5-(2-morpholino-5a,6,8,9-tetrahydro-5H-pyrimido[5′,4′:4,5]pyrrolo[2,1-c][1,4]oxazin-4-yl)-4-(trifluoromethyl)pyridin-2-amine] | 5.58 | 5.23 | 5.04
7 | Nc1ncc(-c2nc(N3CCOCC3)nc3c2C[C@@H]2COCCN32)cn1 [Compound 41, (R)-5-(2-morpholino-5a,6,8,9-tetrahydro-5H-pyrimido[5′,4′:4,5]pyrrolo[2,1-c][1,4]oxazin-4-yl)pyrimidin-2-amine] | 6.64 | 6.24 | 6.24
8 | Nc1ncc(-c2nc(N3CCOCC3)nc3c2C[C@H]2COCCN32)cn1 [Compound 57, (S)-5-(2-morpholino-5a,6,8,9-tetrahydro-5H-pyrimido[5′,4′:4,5]pyrrolo[2,1-c][1,4]oxazin-4-yl)pyrimidin-2-amine] | 5.79 | 5.90 | 6.23
